From PubChem BioAssay AID248 (DTP/NCI, 2004)
Values joined by “and” are separate entries in the source; they are usually repeats but may differ in a detail not shown here. Identical values can stand only once. Inconclusive results and toxic doses are left out. Cut-off read from the data, not from the text of the source: active = T/C of 150% or more; inactive = T/C below 125%.

Tested on: L1210 leukemia ip in BDF1 mice, survival T/C
Assay: NCI In Vivo Anticancer Drug Screen. Data for tumor model L1210 Leukemia (intraperitoneal) in B6D2F1 (BDF1) mice
Conditions: endpoint: mean survival time, higher = longer survival
Summary of the method: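 Ratio derived from survival: compound-dosed mice over vehicle-dosed mice, all bearing a transplantable tumor.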

[1] = dose: 100.0 mg/kg/injection, schedule: Q04DX002 (ip), vehicle: Klucel (hydroxypropylcellulose) (HPC)
[2] = dose: 100.0 mg/kg/injection, schedule: Q04DX002 (ip), vehicle: saline
[3] = dose: 200.0 mg/kg/injection, schedule: Q04DX002 (ip), vehicle: saline
[4] = dose: 100.0 mg/kg/injection, schedule: Q04DX003 (ip), vehicle: saline with Tween-80
[5] = dose: 200.0 mg/kg/injection, schedule: Q04DX003 (ip), vehicle: saline with Tween-80
[6] = dose: 400.0 mg/kg/injection, schedule: Q04DX003 (ip), vehicle: saline with Tween-80
[7] = dose: 100.0 mg/kg/injection, schedule: Q04DX003 (ip), vehicle: saline
[8] = dose: 200.0 mg/kg/injection, schedule: Q04DX003 (ip), vehicle: saline
[9] = dose: 400.0 mg/kg/injection, schedule: Q04DX003 (ip), vehicle: saline
[10] = dose: 100.0 mg/kg/injection, schedule: Q01DX009 (ip), vehicle: saline
[11] = dose: 200.0 mg/kg/injection, schedule: Q01DX009 (ip), vehicle: saline with Tween-80
[12] = dose: 400.0 mg/kg/injection, schedule: Q01DX009 (ip), vehicle: saline with Tween-80
[13] = dose: 100.0 mg/kg/injection, schedule: Q01DX009 (ip), vehicle: Klucel (hydroxypropylcellulose) (HPC)

Measured: T/C

O=C(Nc1cccc2c(NC(=O)c3ccccc3)cccc12)c1ccccc1
inactive: dose: 100.0 mg/kg/injection, schedule: Q01DX001 (ip), vehicle: saline with Tween-80 92 % of control | dose: 200.0 mg/kg/injection, schedule: Q01DX001 (ip), vehicle: saline with Tween-80 91 % of control | dose: 400.0 mg/kg/injection, schedule: Q01DX001 (ip), vehicle: saline with Tween-80 89 % of control

Nc1ccccc1C(=O)N/N=C/c1cccc(O)c1
inactive: [1] 98 % of control | dose: 200.0 mg/kg/injection, schedule: Q04DX002 (ip), vehicle: Klucel (hydroxypropylcellulose) (HPC) 103 % of control | dose: 400.0 mg/kg/injection, schedule: Q04DX002 (ip), vehicle: Klucel (hydroxypropylcellulose) (HPC) 113 % of control

CN(C)S(=O)(=O)c1ccc(CCCCCCc2ccc(S(=O)(=O)N(C)C)cc2)cc1
inactive: dose: 100.0 mg/kg/injection, schedule: Q01DX001 (ip), vehicle: carboxymethylcellulose (CMC) 96 % of control | dose: 200.0 mg/kg/injection, schedule: Q01DX001 (ip), vehicle: carboxymethylcellulose (CMC) 102 % of control | dose: 400.0 mg/kg/injection, schedule: Q01DX001 (ip), vehicle: carboxymethylcellulose (CMC) 91 % of control

CCOc1ccccc1NC(=O)C1CCCCC1C(=O)O (stereo unspecified)
inactive: [2] 96 % of control | [3] 112 % of control

O=C(O)CC1CCC(CC(=O)O)CC1 (stereo unspecified)
inactive: [4] 92 % of control | [5] 89 % of control | [6] 94 % of control

O=[N+]([O-])c1cc(-c2ccccc2)cc([N+](=O)[O-])c1Cl
inactive: dose: 50.0 mg/kg/injection, schedule: Q01DX009 (ip), vehicle: acetone 97 % of control | dose: 100.0 mg/kg/injection, schedule: Q01DX009 (ip), vehicle: acetone 100 % of control | [7] 96 % of control | dose: 200.0 mg/kg/injection, schedule: Q01DX009 (ip), vehicle: acetone 95 % of control | [8] 102 % of control | [9] 102 % of control

C[Si](C)(O[Si](C)(C)c1ccccc1)c1ccccc1
inactive: dose: 20.0 mg/kg/injection, schedule: Q01DX009 (ip), vehicle: saline 93 % of control | dose: 40.0 mg/kg/injection, schedule: Q01DX009 (ip), vehicle: saline 90 % of control | dose: 80.0 mg/kg/injection, schedule: Q01DX009 (ip), vehicle: saline 87 % of control | [10] 95 % of control | [7] 103 % of control | dose: 200.0 mg/kg/injection, schedule: Q01DX009 (ip), vehicle: saline 107 % of control | [8] 100 % of control | [9] 97 % of control

CNc1ccc(/C=N/CCl)cc1
inactive: [4] 92 % of control | [5] 91 % of control | [6] 96 % of control

CCCCCCCC/C=C\CCCCCCCCNP(=O)(OC)OC
inactive: dose: 25.0 mg/kg/injection, schedule: Q04DX002 (ip), vehicle: saline with Tween-80 96 % of control | dose: 50.0 mg/kg/injection, schedule: Q04DX002 (ip), vehicle: saline with Tween-80 92 % of control | dose: 100.0 mg/kg/injection, schedule: Q04DX002 (ip), vehicle: saline with Tween-80 101 % of control and 92 % of control

CC(C)CC(Br)C(=O)NC(CC(C)C)C(=O)O (stereo unspecified)
inactive: dose: 100.0 mg/kg/injection, schedule: Q01DX009 (ip), vehicle: saline with Tween-80 96 % of control | [11] 88 % of control | [12] 92 % of control

Cc1ccc(Cl)cc1NC(=O)COc1ccc(Cl)cc1
inactive: [13] 88 % of control | dose: 100.0 mg/kg/injection, schedule: Q04DX003 (ip), vehicle: Klucel (hydroxypropylcellulose) (HPC) 98 % of control | dose: 200.0 mg/kg/injection, schedule: Q01DX009 (ip), vehicle: Klucel (hydroxypropylcellulose) (HPC) 94 % of control | dose: 200.0 mg/kg/injection, schedule: Q04DX003 (ip), vehicle: Klucel (hydroxypropylcellulose) (HPC) 88 % of control | dose: 400.0 mg/kg/injection, schedule: Q01DX009 (ip), vehicle: Klucel (hydroxypropylcellulose) (HPC) 91 % of control | dose: 400.0 mg/kg/injection, schedule: Q04DX003 (ip), vehicle: Klucel (hydroxypropylcellulose) (HPC) 103 % of control

CCP(CC)SC1OC(COC(C)=O)C(OC(C)=O)C(OC(C)=O)C1OC(C)=O (stereo unspecified)
inactive: dose: 50.0 mg/kg/injection, schedule: Q01DX001 (ip), vehicle: Klucel (hydroxypropylcellulose) (HPC) 102 % of control | dose: 100.0 mg/kg/injection, schedule: Q01DX001 (ip), vehicle: Klucel (hydroxypropylcellulose) (HPC) 101 % of control | dose: 200.0 mg/kg/injection, schedule: Q01DX001 (ip), vehicle: Klucel (hydroxypropylcellulose) (HPC) 98 % of control

Cc1cccc(-n2c(N)cc(=O)[nH]c2=S)n1
inactive: dose: 12.5 mg/kg/injection, schedule: Q01DX009 (ip), vehicle: saline 97 % of control | dose: 12.5 mg/kg/injection, schedule: Q04DX003 (ip), vehicle: saline 96 % of control | dose: 25.0 mg/kg/injection, schedule: Q01DX009 (ip), vehicle: saline 96 % of control | dose: 25.0 mg/kg/injection, schedule: Q04DX003 (ip), vehicle: saline 96 % of control | dose: 50.0 mg/kg/injection, schedule: Q01DX009 (ip), vehicle: saline 94 % of control and 105 % of control | dose: 50.0 mg/kg/injection, schedule: Q04DX003 (ip), vehicle: saline 91 % of control | [10] 87 % of control

Nc1ncnc2c1cnn2CCCl
inactive: dose: 100.0 mg/kg/injection, schedule: Q01DX001 (ip), vehicle: saline 101 % of control | [7] 106 % of control | dose: 132.0 mg/kg/injection, schedule: Q04DX003 (ip), vehicle: saline 104 % of control and 123 % of control | dose: 200.0 mg/kg/injection, schedule: Q01DX001 (ip), vehicle: saline 101 % of control | [8] 102 % of control and 124 % of control | dose: 300.0 mg/kg/injection, schedule: Q04DX003 (ip), vehicle: saline 104 % of control | dose: 400.0 mg/kg/injection, schedule: Q01DX001 (ip), vehicle: saline 102 % of control | [9] 101 % of control

Clc1nc(Cl)c2c(n1)NCCN2
inactive: dose: 50.0 mg/kg/injection, schedule: Q01DX009 (ip), vehicle: Klucel (hydroxypropylcellulose) (HPC) 106 % of control | [13] 103 % of control

CNC(=O)c1ccccc1-c1ccccc1C(=O)NC
inactive: dose: 100.0 mg/kg/injection, schedule: Q01DX001 (ip), vehicle: other 102 % of control | dose: 200.0 mg/kg/injection, schedule: Q01DX001 (ip), vehicle: other 102 % of control | dose: 400.0 mg/kg/injection, schedule: Q01DX001 (ip), vehicle: other 98 % of control

CN(C)c1ccc(/C=N/O)cc1
inactive: [2] 103 % of control | [3] 95 % of control | dose: 400.0 mg/kg/injection, schedule: Q04DX002 (ip), vehicle: saline 95 % of control

Oc1ccc(-c2cc3c(O)ccc(O)c3[nH]2)cc1O
inactive: dose: 25.0 mg/kg/injection, schedule: Q04DX002 (ip), vehicle: Klucel (hydroxypropylcellulose) (HPC) 86 % of control | dose: 50.0 mg/kg/injection, schedule: Q04DX002 (ip), vehicle: Klucel (hydroxypropylcellulose) (HPC) 93 % of control | [1] 89 % of control

S=c1c2ccccc2nc2n1CCS2
inactive: [11] 92 % of control | [12] 87 % of control

Cn1cc(C(O)CN2CCCCC2)c2ccccc21 (stereo unspecified)
inactive: dose: 25.0 mg/kg/injection, schedule: Q04DX003 (ip), vehicle: saline with Tween-80 104 % of control | dose: 50.0 mg/kg/injection, schedule: Q04DX003 (ip), vehicle: saline with Tween-80 97 % of control
